Source: patent US12637687B2, “Nucleic acid molecules, polypeptides having epoxy group-removing catalytic activity and use thereof” (SHANDONG AGRICULTURAL UNIVERSITY, priority 2020, dated 2026)

Key:
[1] = tested on: ThFhb7; design: species or system Thinopyrum ponticum; details: in vivo
[2] = tested on: ThFhb7; format: cell-based, Thinopyrum ponticum
[3] = tested on: pancreatic cancer cell line (PATU8988); assay: Cytotoxicity assay by CCK8 method; details: PATU8988, 48 h treatment, CCK-8, OD450
[4] = tested on: human embryonic kidney cell 293-derived line (293T); assay: Cytotoxicity assay by CCK8 method; details: 48 h treatment, CCK-8, OD450
[5] = tested on: normal human esophageal epithelial cells (HEECs); assay: Cytotoxicity assay by CCK8 method; details: 48 h treatment, CCK-8, OD450
[6] = In vitro enzymatic reaction system of ThFhb7 polypeptide (DON + GSH, LC-HRMS); format: biochemical
Description: The optimal conditions for the in vitro enzymatic reaction system of ThFhb7 polypeptide were established by gradient experiments of three different factors affecting the enzymatic reaction: • (1) the gradient of reaction enzyme amounts: 1 μg, 5 μg, 10 μg, 25 μg, and 50 μg; • (2) the pH gradient set with various buffers: ranging from 3.0 to 10.0, disodium hydrogen phosphate-citric acid buffer (pH=3.0, 4.0, 5.0), disodium hydrogen phosphate-potassium dihydrogen phosphate buffer (pH=6.0, 7.0), and Tris-phosphate buffer (pH=8.0, 9.0, 10.0); and • (3) the gradient of reaction temperatures: 4° C., 12° C., 15° C., 20° C., 25° C., 30° C., 37° C., 45° C., and 50° C.
The reaction was performed in a phosphate buffer (PBS) (pH=7.0), at 25° C. for 12 h, and samples were taken at 0 h, 0.5 h, 1 h, 3 h, and 6 h respectively for LC-HRMS analysis; through the area results of first-level scanning of LC-HRMS, the changes in the amounts of the two substances, DON as the reaction substrate and the GSH adduct as the reaction product, were obtained with proceeding of reaction, so as to obtain the optimal enzyme amount for the reaction, as shown in FIGS. 14A and 14B. […]

[7] = tested on: F. asiaticum; details: in vivo
[8] = tested on: F. pseudograminearum; details: in vivo
[9] = tested on: F. pseudograminearum; details: in vivo; remark: listed apart in the source
[10] = tested on: Pichia pastoris; assay: DON tolerance of transgenic Pichia pastoris; format: cell-based; details: YPDA media comprising 400 μM DON, 5 days

Molecule | amounts decreased as compared with the control [1] | toxin significantly reduced as compared with wheat without ThFhb7 [1] | DON-GSH adduct in DON-treated yeast expressing the active polypeptide [2] | cell viability [3] | cell viability [4] | cell viability [5] | catalysis of vomitoxin into a glutathione adduct in vitro ([6]; DON 1 mg, GSH in PBS, 20° C., 24 h) | enzyme activity above 37° C. (DON-GSH cannot be detected) ([6]; above 37° C., pH 7.0, 25 μg enzyme) | diseased spot area on leaves vs KN199 [7] | diseased spot area on leaves vs KN199 [8] | death rate of transgenic plants vs wild type [9] | degree of disease at the stem base vs control [9] | growth viability vs transgenic yeast with the blank vector [10]
CC1=C[C@H]2O[C@@H]3[C@H](O)C[C@](C)([C@@]2(CO)[C@H](O)C1=O)[C@]31CO1 [DON, deoxynivalenol] | about ⅔ | about ⅓ | detected | decreases sharply | decreases sharply | decreases sharply |  |  |  |  |  |  | 
CC(=O)O[C@@H]1C[C@]2(C)[C@@]3(CO)[C@H](O)C(=O)C(C)=C[C@H]3O[C@H]1[C@@]21CO1 [3-ADON, 3-acetyl-deoxynivalenol] | about ⅔ | about ⅓ |  |  |  |  |  |  |  |  |  |  | 
ThFhb7: de-epoxidase from Thinopyrum ponticum; polypeptide having epoxy group-removing catalytic activity, amino acid sequence SEQ ID NO: 36, gene SEQ ID NO: 1 (protein, listed as Elytrigia ponticum) MATSASTSTPIIPTAIAGAPPVAGTCCAVAPTLSALALAPLAVPTTTTTVLMPAISSVAASLAVPACALPAAGSAPATLPIIHAPATASLVGASPAIAATLGATTPASGAGALPPPGLLATAVGAAMPGLLIPLSGIAASPGLAATAAPASAVAAAPTAHVGLMVHGLPLAPATAAVTLAGPVAAAGLSSTAALGMVGGAAALMMGSLAAMLGALAALPALAASGPPLLGGAATTAAMIVGGTLAMMAATLPVSGTGGAAACHGAIPGGLHAALALTAGVL |  |  |  |  |  |  | efficiently catalyze vomitoxin into a glutathione adduct | basically lost its activity | significantly reduced | significantly reduced | significantly lower | less severe | significantly higher
